Reference: US20100120762A1, “Triazine derivatives as inhibitors of phosphodiesterases” (WYETH, priority 2008, published 2010)
Like-named read-outs stand apart in the source and are kept apart here.

What was measured:
[1] = molecular target: T1, PDE2A (NM002599) (Homo sapiens, UniProt O00408); assay: Inhibition of recombinant PDE2A (expressed in baculovirus/SF21-cells); format: biochemical
T1 construct: made in house; host or cells: baculovirus / SF21 insect cells
Protocol: PDE2A (NM002599) was cloned and the gene was inserted in the baculovirus and the enzyme-protein expressed in SF21-cells. The enzyme was isolated from these cells by harvesting the cells by an centrifugation at 200 g to collect the cells. The cells were resuspended in 50 mM Tris-HCl/5 mM MgCl2 buffer (pH=7.4) (Sigma, Deisenhofen, Germany; Merck, Darmstadt, Germany) and lysed by a sonication of the cells (three times for 15 seconds, Labsonic U, Fa. Braun, Degersheim, Switzerland, level “high”). The membrane fraction of PDE2A was obtained by a centrifugation at 48 000 g for 1 h, resuspended in buffer and stored at −70° C.
PDE2A activity was determined in a one step procedure in microtiterplates. The reaction mixture of 100 μl contained 50 mM Tris-HCl/5 mM MgCl2 buffer (pH=7.4) (Sigma, Deisenhofen, Germany; Merck, Darmstadt, Germany), 0.5 μM [3H]-cAMP (Amersham, Buckinghamshire, UK), 1000 nM cGMP and the enzyme. Non-specific enzyme activity was tested in the absence of cGMP. The reaction was initiated by addition of the substrate solution and was carried out at 37° C. for 30 minutes. Enzymatic activity then was stopped by addition of 25 μl SPA-beads (Amersham-Pharmacia). One hour later the mixture was measured in a liquid scintillation counter for microtiterplates (Microbeta Trilux). For pipetting of the incubation mixture the robot Biomek (Fa. Beckman) was routinely used.
The optimal amount of enzyme in the assay has been determined and optimised for each enzyme preparation separately before using the enzyme in compound testing. For determination of IC50 values the Hill-plot, 2-parameter-model, was used.

[2] = molecular target: T2, PDE10A1 (AB 020593) (Homo sapiens, UniProt Q9Y233); assay: Inhibition of recombinant PDE10A (baculovirus/SF21 system); format: biochemical
T2 construct: made in house; host or cells: baculovirus / SF21 insect cells (gene synthesized by Entelechon GmbH)
T2 sequence (Q9Y233 other isoform, or with tags, fused parts or gaps): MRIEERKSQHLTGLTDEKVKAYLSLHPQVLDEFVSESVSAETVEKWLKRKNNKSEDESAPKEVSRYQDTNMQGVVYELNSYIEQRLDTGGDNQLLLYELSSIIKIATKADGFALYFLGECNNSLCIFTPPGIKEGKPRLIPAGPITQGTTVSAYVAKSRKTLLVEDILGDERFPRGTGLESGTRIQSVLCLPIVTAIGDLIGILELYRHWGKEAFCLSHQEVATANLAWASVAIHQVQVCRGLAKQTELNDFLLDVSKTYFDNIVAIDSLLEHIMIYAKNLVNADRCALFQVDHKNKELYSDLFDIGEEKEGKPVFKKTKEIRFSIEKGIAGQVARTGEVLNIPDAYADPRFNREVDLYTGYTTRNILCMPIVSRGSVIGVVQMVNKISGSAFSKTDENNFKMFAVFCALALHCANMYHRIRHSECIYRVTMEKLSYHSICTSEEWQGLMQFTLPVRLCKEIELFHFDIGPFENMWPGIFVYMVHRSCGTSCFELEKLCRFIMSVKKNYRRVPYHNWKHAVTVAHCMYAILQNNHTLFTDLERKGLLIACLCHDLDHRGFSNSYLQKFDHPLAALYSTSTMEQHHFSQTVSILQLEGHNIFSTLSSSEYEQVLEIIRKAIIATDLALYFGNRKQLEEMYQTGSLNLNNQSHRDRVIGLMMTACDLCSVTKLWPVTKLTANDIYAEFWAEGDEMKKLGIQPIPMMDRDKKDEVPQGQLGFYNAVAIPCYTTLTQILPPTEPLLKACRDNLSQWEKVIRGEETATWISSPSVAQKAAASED
Protocol: The DNA of PDE10A1 (AB 020593, 2340 bp) was synthesized and cloned into the vector pCR4.TOPO (Entelechon GmbH, Regensburg, Germany). The gene was than inserted into a baculovirus vector, ligated with the baculovirus DNA. The enzyme-protein was expressed in SF21-cells. The enzyme was isolated from these cells by harvesting the cells by an centrifugation at 500 g to collect the cells.
The cells were resuspended in 50 mM Tris-HCl/1 mM EDTA/250 mM Sucrose buffer, pH=7.4 (Sigma, Deisenhofen, Germany; Merck, Darmstadt, Germany) and lysed by sonification of the cells (three times for 15 seconds, Labsonic U, Fa. Braun, Degersheim, Switzerland, level “high”). The cytosolic PDE10A was obtained by a centrifugation at 48,000 g for 1 h in the supernatant and stored at −70° C.
PDE activity was determined in a one step procedure in microtiter plates. The reaction mixture of 100 μl contained 50 mM Tris-HCl/5 mM MgCl2 buffer (pH=7.4, Sigma, Deisenhofen, Germany; Merck, Darmstadt, Germany) 0.1 μM [3H]-cAMP (Amersham, Buckinghamshire, UK) and the enzyme. Non-specific enzyme activity was determined without the enzyme. The reaction was initiated by addition of the substrate solution and was carried out at 37° C. for 30 minutes. Enzymatic activity then was stopped by addition of 25 μl Ysi-SPA-beads (Amersham-Pharmacia). One h later the mixture was measured in a liquid scintillation counter for microtiter plates (Microbeta Trilux). The Biomek 2000 (Beckman) was used routinely for pipetting of the incubation mixture. The optimal amount of enzyme in the assay has been determined and optimized for each enzyme preparation separately before using the enzyme in compound testing. For determination of IC50 values the Hill-plot, 2-parameter-model, was used.

[3] = recombinant PDE2A, 0.5 μM [3H]-cAMP, 1000 nM cGMP, 37° C., 30 minutes, SPA, read-out: PDE2A IC50
[4] = recombinant cytosolic PDE10A, 0.1 μM [3H]-cAMP, 37° C., 30 minutes, SPA, read-out: PDE10A IC50

T1 sequence (O00408 whole entry): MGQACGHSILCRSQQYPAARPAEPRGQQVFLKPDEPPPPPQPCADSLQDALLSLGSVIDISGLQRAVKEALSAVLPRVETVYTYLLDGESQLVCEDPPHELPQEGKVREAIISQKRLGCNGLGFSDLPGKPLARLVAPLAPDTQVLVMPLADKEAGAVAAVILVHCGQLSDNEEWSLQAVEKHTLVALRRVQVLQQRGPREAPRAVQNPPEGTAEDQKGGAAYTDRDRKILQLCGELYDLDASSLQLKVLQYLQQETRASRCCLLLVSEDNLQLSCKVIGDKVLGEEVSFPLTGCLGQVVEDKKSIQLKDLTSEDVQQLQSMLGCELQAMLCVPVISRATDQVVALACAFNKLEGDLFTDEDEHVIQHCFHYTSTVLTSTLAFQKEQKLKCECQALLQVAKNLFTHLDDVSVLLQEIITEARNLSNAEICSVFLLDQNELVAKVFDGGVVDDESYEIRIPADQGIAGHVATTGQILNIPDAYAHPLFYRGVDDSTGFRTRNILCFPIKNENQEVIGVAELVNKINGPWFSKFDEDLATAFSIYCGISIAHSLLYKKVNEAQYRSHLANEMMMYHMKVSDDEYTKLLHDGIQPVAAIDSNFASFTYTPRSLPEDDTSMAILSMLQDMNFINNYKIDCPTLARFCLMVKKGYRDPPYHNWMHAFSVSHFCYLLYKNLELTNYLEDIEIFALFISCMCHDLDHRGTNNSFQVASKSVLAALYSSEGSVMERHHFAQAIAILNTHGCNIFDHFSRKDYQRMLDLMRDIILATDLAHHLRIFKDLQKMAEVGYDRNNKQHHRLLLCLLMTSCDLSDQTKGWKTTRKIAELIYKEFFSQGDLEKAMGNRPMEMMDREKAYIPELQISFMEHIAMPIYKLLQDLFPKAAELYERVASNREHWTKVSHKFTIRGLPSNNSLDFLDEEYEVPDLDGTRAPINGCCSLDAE

Compound	IC50 [1, 3] [nM]	IC50 [2, 4] [nM]	IC50 [1] [nM]	IC50 [2] [nM]
COc1ccc2nnc3c(C)nc(-c4ccc(F)nc4C)n3c2n1 [Example 66, 9-(6-fluoro-2-methylpyridin-3-yl)-2-methoxy-7-methylimidazo[5,1-c]pyrido[2,3-e][1,2,4]triazine]	49	225	–	–
COc1ccc2nnc3c(C)nc(-c4cc(Cl)ccc4C)n3c2n1 [Example 60, 9-(5-chloro-2-methylphenyl)-2-methoxy-7-methylimidazo[5,1-c]pyrido[2,3-e][1,2,4]triazine]	8	106	–	–
COc1ccc2nnc3c(C)nc(-c4ccccc4Oc4ccccc4)n3c2n1 [Example 105, 8-Methoxy-3-methyl-1-(2-phenoxy-phenyl)-imidazo[5,1-c]pyrido[2,3-e][1,2,4]triazine]	61.7	817	–	–
COc1ccc2nnc3c(C)nc(-c4ccc(C(N)=O)c(Cl)c4)n3c2n1 [Example 84, 2-chloro-4-(2-methoxy-7-methylimidazo[5,1-c]pyrido[2,3-e][1,2,4]triazin-9-yl)benzamide]	423	158	–	–
9-[2-fluoro-5-(1-methylethoxy)phenyl]-2-methoxy-7-methylimidazo[5,1-c]pyrido[2,3-e][1,2,4]triazine [Example 20]	102	2430	–	–
COc1ccc2nnc3c(C)nc(-c4cc(Cl)cnc4OC)n3c2n1 [Example 41, 9-(5-chloro-2-methoxypyridin-3-yl)-2-methoxy-7-methylimidazo[5,1-c]pyrido[2,3-e][1,2,4]triazine]	54.3	291	–	–
COc1ccc2nnc3c(C)nc(-c4cc(Cl)cc(Cl)c4Cl)n3c2n1 [Example 85, 2-methoxy-7-methyl-9-(2,3,5-trichlorophenyl)imidazo[5,1-c]pyrido[2,3-e][1,2,4]triazine]	34.5	145	–	–
COc1ccc2nnc3c(C)nc(-c4c(Cl)cccc4OC)n3c2n1 [Example 86, 9-(2-chloro-6-methoxyphenyl)-2-methoxy-7-methylimidazo[5,1-c]pyrido[2,3-e][1,2,4]triazine]	12	54.5	–	–
COc1cccc(-c2nc(C)c3nnc4ccc(OC)nc4n23)c1 [Example 58, 2-methoxy-9-(3-methoxyphenyl)-7-methylimidazo[5,1-c]pyrido[2,3-e][1,2,4]triazine]	14.7	37.7	–	–
COc1ccc2nnc3c(C)nc(-c4cc(C(C)C)ccc4OC)n3c2n1 [Example 16, 2-methoxy-9-[2-methoxy-5-(1-methylethyl)phenyl]-7-methylimidazo[5,1-c]pyrido[2,3-e][1,2,4]triazine]	274	3330	–	–
COc1ccc2nnc3c(C)nc(-c4ccc(C)cc4Cl)n3c2n1 [Example 61, 9-(2-chloro-4-methylphenyl)-2-methoxy-7-methylimidazo[5,1-c]pyrido[2,3-e][1,2,4]triazine]	7.54	21.6	–	–
COc1ccc2nnc3c(C)nc(-c4ccncc4C)n3c2n1 [Example 64, 2-methoxy-7-methyl-9-(3-methylpyridin-4-yl)imidazo[5,1-c]pyrido[2,3-e][1,2,4]triazine]	56.2	85.6	–	–
COc1ccc2nnc3c(C)nc(-c4ccc(OC)c(Cl)c4)n3c2n1 [Example 95, 9-(3-chloro-4-methoxyphenyl)-2-methoxy-7-methylimidazo[5,1-c]pyrido[2,3-e][1,2,4]triazine]	772	> 500	–	–
COc1ccc2nnc3c(C)nc(-c4ccc(F)c(OC)c4)n3c2n1 [Example 23, 9-(4-fluoro-3-methoxyphenyl)-2-methoxy-7-methylimidazo[5,1-c]pyrido[2,3-e][1,2,4]triazine]	26.4	34.9	–	–
CCOc1ccc(Cl)c(-c2nc(C)c3nnc4ccc(OC)nc4n23)c1 [Example 74, 9-(2-chloro-5-ethoxyphenyl)-2-methoxy-7-methylimidazo[5,1-c]pyrido[2,3-e][1,2,4]triazine]	10.1	87.9	–	–
COc1ccc2nnc3c(C)nc(-c4cc(OC(F)(F)F)ccc4Cl)n3c2n1 [Example 76, 9-(2-chloro-5-(trifluoromethoxy)phenyl)-2-methoxy-7-methylimidazo[5,1-c]pyrido[2,3-e][1,2,4]triazine]	10.6	149	–	–
1-(2-Fluoro-5-trifluoromethyl-phenyl)-8-methoxy-3-methyl-imidazo[5,1-c]pyrido[2,3-e][1,2,4]triazine [Example 110]	52.2	341	–	–
COc1ccc2nnc3c(C)nc(-c4ccccc4C)n3c2n1 [Example 101, 2-methoxy-7-methyl-9-o-tolylimidazo[5,1-c]pyrido[2,3-e][1,2,4]triazine]	15.8	46.1	–	–
COc1ccc2nnc3c(C)nc(-c4sc(C)nc4C)n3c2n1 [Example 54, 9-(2,4-dimethyl-1,3-thiazol-5-yl)-2-methoxy-7-methylimidazo[5,1-c]pyrido[2,3-e][1,2,4]triazine]	23	64.5	–	–
8-Methoxy-3-methyl-1-(2-nitro-phenyl)-imidazo[5,1-c]pyrido[2,3-e][1,2,4]triazine [Example 106]	378	824	–	–
COc1ccc(C)c(-c2nc(C)c3nnc4ccc(OC)nc4n23)c1 [Example 100, 2-methoxy-9-(5-methoxy-2-methylphenyl)-7-methylimidazo[5,1-c]pyrido[2,3-e][1,2,4]triazine]	5.52	55.6	–	–
COc1ccnc2c1nnc1c(C)nc(-c3ccncc3C)n12 [Example 114, 4-methoxy-7-methyl-9-(3-methylpyridin-4-yl)imidazo[5,1-c]pyrido[2,3-e][1,2,4]triazine]	2060	10.1	–	–
COc1cc(-c2nc(C)c3nnc4ccc(OC)nc4n23)c(Cl)cn1 [Example 46, 9-(5-chloro-2-methoxypyridin-4-yl)-2-methoxy-7-methylimidazo[5,1-c]pyrido[2,3-e][1,2,4]triazine]	70.1	191	–	–
4-(2-methoxy-7-methylimidazo[5,1-c]pyrido[2,3-e][1,2,4]triazin-9-yl)-3-methylisoxazole [Example 68]	187	1020	–	–
COc1ccc2nnc3c(C)nc(-c4cncc(F)c4)n3c2n1 [Example 43, 9-(5-fluoropyridin-3-yl)-2-methoxy-7-methylimidazo[5,1-c]pyrido[2,3-e][1,2,4]triazine]	272	367	–	–
COc1ccc2nnc3c(C)nc(-c4cc(C)ccc4Cl)n3c2n1 [Example 71, 9-(2-chloro-5-methylphenyl)-2-methoxy-7-methylimidazo[5,1-c]pyrido[2,3-e][1,2,4]triazine]	4.37	37.9	–	–
COc1ccc2nnc3c(C)nc(-c4ccc5[nH]ccc5c4)n3c2n1 [Example 81, 9-(1H-indol-5-yl)-2-methoxy-7-methylimidazo[5,1-c]pyrido[2,3-e][1,2,4]triazine]	–	–	186	62.6
COc1ccc2nnc3c(C)nc(-c4ccc(Cl)c(Cl)c4)n3c2n1 [Example 92, 9-(3,4-dichlorophenyl)-2-methoxy-7-methylimidazo[5,1-c]pyrido[2,3-e][1,2,4]triazine]	660	231	–	–
CCc1cccc(-c2nc(C)c3nnc4ccc(OC)nc4n23)c1 [Example 17, 9-(3-ethylphenyl)-2-methoxy-7-methylimidazo[5,1-c]pyrido[2,3-e][1,2,4]triazine]	80.5	162	–	–
